Data published in patent publication US8193252B1, “Mesoprogestins (progesterone receptor modulators) for the treatment and prevention of benign hormone dependent gynecological disorders” (Bayer Pharma AG, priority 1999, dated 2012).

Tests used:
[1] = test system: pregnant rats; assay: Abortifacient activity in pregnant rats; format: in vivo, rat; settings: s.c.; treatment days 5-7 of pregnancy, autopsy day 9; * SAS, probit procedure
From the text: The guinea pig is considered as relevant model of human gestation and parturition (Elger W, Fähnrich M, Beier S, Quing S S, Chwalisz K (1987). Endometrial and myometrial effects of progesterone antagonists in pregnant guinea pigs. Am J Obstet Gynecol 157: 1065-1074; Elger W, Neef G, Beier S, Fähnrich M, Gründel M, Heermann J, Malmendier A, Laurent D, Puri C P, Singh M M, Hasan S H, Becker H (1992). Evaluation of antifertility activities of antigestagens in animal model. In: Puri C P and Van Look P F A (eds), Current Concepts in Fertility Regulation and Reproduction. Wiley Eastern Limited, New Delhi, pp. 303-328; Elger W, Faehnrich M, Beier S, Qing S S, Chwalisz K (1986). Mechanism of action of progesterone antagonists in pregnant guinea pigs. Contraception 6: 47-62; Elger W, Chwalisz K, Faehnrich M, Hasan S H, Laurent D, Beier S, Ottow E, Neef G, Garfield R E (1990). Studies on labor-conditioning and labor-inducing effects of antiprogesterones in animal model. In: Garfield R E (eds), Norwell, pp. 153-175.) The mechanism of abortion of antiprogestins in this species is the initiation of labor and finally the expulsion of the conceptus. Abortifacient effects in the rat during very early pregnancy reflect inhibitory effects on nidation rather than initiation of uterine contractions. Studies in the rat model lead to “overestimation” of the potential of antiprogestins to terminate pregnancy in humans. Conversely, in the guinea pig model, irrespective of the antiprogestin doses, there were high rates of ongoing pregnancies similar to the situation in humans (Elger et al., Current Concepts in Fertility Regulation and Reproduction cited above). Furthermore, in both humans and guinea pigs, there is a strong synergism between antiprogestins and prostaglandins with respect the induction of labor (see the articles cited above and Elger W, Beier S (1983). Prostaglandine and Antigestagene für den Schwangerschaftsabbruch (Prostaglandins and antigestagens for pregnancy termination). German Patent DE 3337450 12; Van Look P, Bygdeman M (1989). Antiprogestational steroids: a new dimension in human fertility regulation. Oxford reviews of reproductive medicine 11: 2-60).

[2] = target: T1, PR (progesterone receptor) (Homo sapiens, UniProt P06401); assay: Relative binding activity (RBA) at PR, progesterone = 100%; settings: by Kaufmann
T1 sequence (P06401 1-933): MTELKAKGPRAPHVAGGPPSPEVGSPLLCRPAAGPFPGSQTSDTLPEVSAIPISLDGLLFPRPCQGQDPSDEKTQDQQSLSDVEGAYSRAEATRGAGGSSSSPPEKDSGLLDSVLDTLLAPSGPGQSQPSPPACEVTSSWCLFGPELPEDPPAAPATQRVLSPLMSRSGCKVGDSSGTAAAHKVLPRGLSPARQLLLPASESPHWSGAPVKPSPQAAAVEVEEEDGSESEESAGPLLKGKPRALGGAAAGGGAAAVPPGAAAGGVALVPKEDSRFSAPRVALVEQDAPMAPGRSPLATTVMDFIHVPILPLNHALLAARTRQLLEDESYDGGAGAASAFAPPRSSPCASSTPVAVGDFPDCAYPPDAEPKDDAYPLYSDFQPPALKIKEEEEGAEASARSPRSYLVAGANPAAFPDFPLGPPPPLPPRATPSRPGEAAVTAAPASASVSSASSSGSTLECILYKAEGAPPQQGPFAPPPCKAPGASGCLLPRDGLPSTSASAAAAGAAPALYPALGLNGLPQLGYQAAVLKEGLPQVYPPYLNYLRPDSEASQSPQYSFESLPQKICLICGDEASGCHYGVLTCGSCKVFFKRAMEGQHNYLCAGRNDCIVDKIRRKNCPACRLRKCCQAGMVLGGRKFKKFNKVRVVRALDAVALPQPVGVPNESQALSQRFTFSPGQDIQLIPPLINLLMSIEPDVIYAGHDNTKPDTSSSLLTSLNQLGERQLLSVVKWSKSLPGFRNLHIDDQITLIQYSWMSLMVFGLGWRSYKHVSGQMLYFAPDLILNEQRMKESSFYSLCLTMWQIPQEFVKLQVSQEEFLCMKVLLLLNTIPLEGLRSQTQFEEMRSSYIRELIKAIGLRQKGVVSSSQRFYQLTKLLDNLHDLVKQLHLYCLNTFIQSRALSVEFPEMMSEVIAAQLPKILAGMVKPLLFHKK

[3] = target: T2, progesterone receptor (PR) (Oryctolagus cuniculus, UniProt P06186); assay: McPhail test, PR agonistic (progestagenic) activity in estradiol-primed juvenile rabbits; format: in vivo, rabbit; settings: for maximum progestagenic effect relative to progesterone: dose range 0.003-100 mg/rabbit s.c.
T2 construct: effects of PR-modulators in the uterus of estrogen primed immature rabbits (McPhail test); from tissue; host or cells: uterus (endometrium) of estradiol-primed juvenile rabbits, in vivo
T2 sequence (P06186 1-930): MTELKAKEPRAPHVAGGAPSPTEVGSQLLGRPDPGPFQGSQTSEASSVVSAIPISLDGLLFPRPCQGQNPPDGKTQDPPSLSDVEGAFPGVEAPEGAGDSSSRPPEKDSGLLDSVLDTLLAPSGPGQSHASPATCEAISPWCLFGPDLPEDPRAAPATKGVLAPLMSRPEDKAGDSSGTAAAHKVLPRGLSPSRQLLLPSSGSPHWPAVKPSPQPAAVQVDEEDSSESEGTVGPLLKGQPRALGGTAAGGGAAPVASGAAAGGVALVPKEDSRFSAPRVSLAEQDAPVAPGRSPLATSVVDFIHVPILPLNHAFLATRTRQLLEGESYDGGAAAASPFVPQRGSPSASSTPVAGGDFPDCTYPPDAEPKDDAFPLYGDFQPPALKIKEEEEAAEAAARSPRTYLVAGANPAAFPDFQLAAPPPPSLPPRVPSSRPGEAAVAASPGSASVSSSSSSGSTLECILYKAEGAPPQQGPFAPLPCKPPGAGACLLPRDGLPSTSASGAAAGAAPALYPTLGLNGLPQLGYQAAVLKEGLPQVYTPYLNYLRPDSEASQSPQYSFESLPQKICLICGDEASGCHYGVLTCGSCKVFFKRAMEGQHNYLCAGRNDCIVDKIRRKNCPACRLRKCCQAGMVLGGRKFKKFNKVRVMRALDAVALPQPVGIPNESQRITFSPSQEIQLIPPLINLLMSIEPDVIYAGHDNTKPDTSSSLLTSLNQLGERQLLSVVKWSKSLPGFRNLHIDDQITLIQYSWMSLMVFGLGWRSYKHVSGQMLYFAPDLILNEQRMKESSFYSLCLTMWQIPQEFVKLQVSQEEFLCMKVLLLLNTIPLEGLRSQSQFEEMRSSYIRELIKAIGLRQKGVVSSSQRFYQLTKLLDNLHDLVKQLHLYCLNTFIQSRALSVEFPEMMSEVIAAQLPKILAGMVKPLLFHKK
Description: In the classical bioassay, the McPhail test, assessing progestagenic and antiprogestagenic effects in rabbits (Selye H., Textbook of Endocrinology, 1947, pp. 345-346), progesterone produces a maximum McPhail score of 4 (by definition).
The PR antagonistic and agonistic properties of mesoprogestins were assessed in estrogen-primed rabbits in the McPhail test according to Selye (Textbook of Endocrinology, 1947, pp. 345-346).

[4] = 4 days s.c. treatment, absence of progesterone

| RBA (%) PR [2] [%] | dose of maximum effect [3, 4] | maximum effect, McPhail score [3, 4] [McPhail score] | shape of dose response in McPhail test ([3]; absence of progesterone) | SMILES | abortifacient activity ED50, rat [1] | maximum progestagenic effect relative to progesterone [3] |
| --- | --- | --- | --- | --- | --- | --- |
| 164 |  |  |  | CCSC(=O)O/N=C/c1ccc([C@H]2C[C@@]3(C)[C@@H](CC[C@]3(COC)OC)[C@@H]3CCC4=CC(=O)CCC4=C32)cc1 [J1042, 4-[17β-Methoxy-17α-(methoxymethyl)-3-oxoestra-4,9-dien-11β-yl]benzaldehyd-(1E)-[O-(ethylthio)carbonyl]oxim] | >10 mg/animal/day | Neither mesoprogestin tested (J1042, J867, J956) reached the maximum effect of progesterone |
| 302 |  |  |  | COC[C@]1(OC)CC[C@H]2[C@@H]3CCC4=CC(=O)CCC4=C3[C@@H](c3ccc(/C=N/O)cc3)C[C@@]21C [J867, 4-[17β-Methoxy-17α-(methoxymethyl)-3-oxoestra-4,9-dien-11β-yl]benzaldehyd-(1E)-oxim] | 0.65* mg/animal/day | Neither mesoprogestin tested (J1042, J867, J956) reached the maximum effect of progesterone |
| 345 | 0.3-1 mg/rabbit | 1.5 | biphasic response | CCNC(=O)O/N=C/c1ccc([C@H]2C[C@@]3(C)[C@@H](CC[C@]3(COC)OC)[C@@H]3CCC4=CC(=O)CCC4=C32)cc1 [J956, 4-[17β-Methoxy-17α-(methoxymethyl)-3-oxoestra-4,9-dien-11β-yl]benzaldehyd-(1E)-[O-(ethylamino)carbonyl]oxim] | 0.64* mg/animal/day | Neither mesoprogestin tested (J1042, J867, J956) reached the maximum effect of progesterone |
